Data taken from patent US20250345287A1, “COMPOSITION COMPRISING A MIXTURE OF AT LEAST ONE OIL AND ONE OR MORE SEMIFLUORINATED ALKANES, A USE OF THE COMPOSITION FOR TREATING A DISEASE AS WELL AS A METHOD OF PRODUCING THE COMPOSITION AND CORRESPONDING KITS” (Fluoron GmbH, priority 2024, published 2025).
Where two headings read alike, the source gives them in different places.

Assay: Drug solubility/uptake in VitreoDens, posterior segment model
Description: Drugs were dissoluted in BSS in clinically relevant concentrations and placed in direct contact with VitreoDens in a ratio of 1:9. 50 μl of the hydrophilic phase were removed from the experiment after 1, 6 and 24 hours and drug concentration was determined using HPLC.
For all the tested small molecule drugs HPLC or HPLC-MS (Agilent 1100 Series) with a reversed-phase C18 column (Chromolith® Performance RP-18e, Merck KGaA Darmstadt, Germany) was performed. Calibration curves and exemplary HPLC runs for each active substance are presented in the Supplementary Materials.
Thus, the solubility of a variety of drugs was tested in VitreoDens in an established posterior segment model (FIGS. 7A and 7B) A >90% fill is mostly thought of as a sufficient fill. Thus, this ratio, given a vitreous cavity volume of 5 ml, was recreated in negatively charged glass vials. First, the drug is injected into the hydrophilic phase at a certain concentration, aliquots of the hydrophilic phase are recovered after certain time points to assess the distribution of the drug in the hydrophilic phase and in VitreoDens (FIG. 7A).

SMILES: C[C@@H](c1ncncc1F)[C@](O)(Cn1cncn1)c1ccc(F)cc1F [voriconazole]
- solubility in VitreoDens: excellent solubility

SMILES: O=c1[nH]cc(F)c(=O)[nH]1 [5-Fluoruracil]
- solubility in VitreoDens (in-vitro, posterior segment model, FIG. 7C): excellent solubility

SMILES: CC(=O)[C@]1(O)Cc2c(O)c3c(c(O)c2[C@@H](O[C@H]2C[C@H](N)[C@H](O)[C@H](C)O2)C1)C(=O)c1ccccc1C3=O [Idarubicin]
- solubility in VitreoDens: excellent solubility

SMILES: C=CC[C@@H]1/C=C(\C)C[C@H](C)C[C@H](OC)[C@H]2O[C@@](O)(C(=O)C(=O)N3CCCC[C@H]3C(=O)O[C@H](/C(C)=C/[C@@H]3CC[C@@H](O)[C@H](OC)C3)[C@H](C)[C@@H](O)CC1=O)[C@H](C)C[C@@H]2OC [Tacrolimus]
- solubility in VitreoDens: excellent solubility
